Results taken from article PMC8498988, “Scaffold Hybridization Strategy Leads to the Discovery of Dopamine D3 Receptor-Selective or Multitarget Bitopic Ligands Potentially Useful for Central Nervous System Disorders” (ACS Chemical Neuroscience, 2021).

Experiments:
D3R [1] = target: T1, D3R (Homo sapiens, UniProt P35462); test: Radioligand competition binding at human D3R ([3H]N-methylspiperone, HEK293 membranes); design: expressed in transfected cells; host or cells: HEK293; settings: for Ki: [3H]N-methylspiperone, HEK 293 cells expressing hD3R, read-out: Ki ± SEM, D3R; for D2/D3: ratio of Ki values D2R/D3R; for D4/D3: ratio of Ki values D4R/D3R
Protocol: (§1) The novel hybrid derivatives 3–11 were tested at hD2R, hD3R, or hD4R stably expressed in HEK293 cells by competition binding assays, using [^3H]N-methylspiperone as the radioligand, to evaluate their D2-like affinity and subtype selectivity, following the previously reported procedures.[41],[45],[46]
(§2) Binding at dopamine D2-like receptors was determined using previously described methods.[41],[45],[46] Membranes were prepared from HEK293 cells stably expressing human D2, D3, or D4, grown in a 50:50 mix of Dulbecco’s minimal essential medium (DMEM) and Ham’s F12 culture media, supplemented with 20 mM HEPES, 2 mM L-glutamine, 0.1 mM nonessential amino acids, 1× antibiotic/antimycotic, 10% heat-inactivated fetal bovine serum, and 200 μg/mL hygromycin (Life Technologies, Grand Island, NY) and kept in an incubator at 37 °C and 5% CO2. Upon reaching 80–90% confluency, the cells were harvested using premixed Earle’s Balanced Salt Solution (EBSS) with 5 μM EDTA (Life Technologies) and centrifuged at 3000 rpm for 10 min at 21 °C. The supernatant was removed, and the pellet was resuspended in 10 mL hypotonic lysis buffer (5 mM MgCl2, 5 mM Tris, pH 7.4 at 4 °C) and centrifuged at 20,000 rpm for 30 min at 4 °C. The pellet was then resuspended in fresh EBSS buffer made from 8.7 g/L Earle’s Balanced Salts without phenol red (US Biological, Salem, MA), 2.2 g/L sodium bicarbonate, pH to 7.4. A Bradford protein assay (Bio-Rad, Hercules, CA) was used to determine the protein concentration, and membranes were diluted to 500 μg/mL and stored at −80 °C for later use. Radioligand competition binding experiments were conducted using thawed membranes. Test compounds were freshly dissolved in 30% DMSO and 70% H2O to a stock concentration of 100 μM. To assist the solubilization of free-base compounds, 10 μL of glacial acetic acid was added along with DMSO. Each test compound was then diluted into 13 half-log serial dilutions using 30% DMSO vehicle; the final test concentrations ranged from 10 μM to 10 pM. The previously frozen membranes were diluted in fresh EBSS to a 100 μg/mL (for D2 or D3) or 200 μg/mL (D4) stock for binding. Radioligand competition experiments were conducted in glass tubes containing 300 μL of fresh EBSS buffer, 50 μL of diluted test compound, 100 μL of membranes (10 μg of total protein for D2 or D3 and 20 μg of total protein for D4), and 50 μL of [^3H]N-methylspiperone (0.4 nM final concentration; PerkinElmer). Nonspecific binding was determined using 10 μM butaclamol (Sigma-Aldrich, St. Louis, MO), and total binding was determined with the 30% DMSO vehicle. All compound dilutions were tested in triplicate and the reaction was incubated for 1 h at room temperature. The reaction was terminated by filtration through Whatman GF/B filters, presoaked for 1 h in 0.5% polyethylenimine, using a Brandel R48 filtering manifold (Brandel Instruments, Gaithersburg, MD). The filters were washed three times with 3 mL of ice-cold EBSS buffer and transferred to scintillation vials. CytoScint liquid scintillation cocktail (3 mL, MP Biomedicals, Solon, OH) was added, and vials were counted using a PerkinElmer Tri-Carb 2910 TR liquid scintillation counter (Waltham, MA).

D4R = target: T2, D4R (Homo sapiens, UniProt P21917); test: Radioligand competition binding at human D4R ([3H]N-methylspiperone, HEK293 membranes); design: expressed in transfected cells; host or cells: HEK293; settings: HEK 293 cells expressing hD4R, read-out: Ki ± SEM, D4R
T2 sequence (P21917 1-419): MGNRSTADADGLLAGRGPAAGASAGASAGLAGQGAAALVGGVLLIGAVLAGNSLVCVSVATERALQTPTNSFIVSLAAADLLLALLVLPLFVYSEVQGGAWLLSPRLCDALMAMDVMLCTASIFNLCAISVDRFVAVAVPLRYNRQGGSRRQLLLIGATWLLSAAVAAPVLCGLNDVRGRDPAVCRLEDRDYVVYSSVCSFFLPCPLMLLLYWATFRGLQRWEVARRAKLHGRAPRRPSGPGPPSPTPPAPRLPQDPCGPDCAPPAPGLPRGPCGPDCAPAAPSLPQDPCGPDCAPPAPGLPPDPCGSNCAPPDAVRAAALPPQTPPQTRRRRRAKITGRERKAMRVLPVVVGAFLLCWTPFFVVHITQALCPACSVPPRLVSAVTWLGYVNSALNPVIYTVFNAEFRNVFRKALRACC
Protocol: as §1, §2

D2R = D2R (Homo sapiens, UniProt P14416); test: D2 mitogenesis functional assay (CHOp-D2 cells); type: cell-based; design: expressed in transfected cells; host or cells: CHOp-D2 cells; settings: for IC50 / % inhib., D2 mitogenesis assay: antagonist mode; for IC50: inhibition of quinpirole stimulation of mitogenesis; for % inhib., D2 mitogenesis assay: standard antagonist (+)-butaclamol; for functional behavior at D2R: in words
Protocol: (§3) CHOp-D2 and CHOp-D3 cells are maintained in α-MEM with 10% fetal bovine serum (FBS, Atlas Biologicals), 0.05% pen-strep, and 400 μg/mL of G418. […] The cells are incubated at 37 °C in α-MEM with 10% FBS. After 48–72 h, the cells are rinsed twice with serum-free α-MEM and incubated for 24 h at 37 °C. Serial dilutions of test compounds are made by the Biomek robotics system in serum-free α-MEM. In the functional assay for agonists, the medium is removed and replaced with 100 μL of test compound in serum-free α-MEM. In the antagonist assay, the serial dilution of the putative antagonist test compound is added in 90 μL (1.1× of final concentration) and 300 nM quinpirole (30 nM final) is added in 10 μL. After another 24 h (D2) or 16 h (D3) incubation at 37 °C, 0.25 μCi of [^3H]thymidine in αMEM supplemented with 10% FBS is added to each well, and the plates are further incubated for 2 h at 37 °C. The cells are trypsinized by addition of 10× trypsin solution (1% trypsin in calcium–magnesium-free phosphate-buffered saline), and the plates are filtered and counted as usual. Quinpirole is run each day as an internal control, and dopamine is included for comparative purposes.

D3R [2] = target: T1, D3R; test: D3 mitogenesis functional assay (CHOp-D3 cells); type: cell-based; design: expressed in transfected cells; host or cells: CHOp-D3 cells; settings: for EC50 / % stimul., D3 mitogenesis assay: agonist mode; for % stimul., D3 mitogenesis assay: standard agonist quinpirole; for IC50 / % inhibition (efficacy), D3R when tested as an antagonist: antagonist mode; for IC50: inhibition of quinpirole stimulation of mitogenesis, read-out: IC50, D3R when tested as an antagonist; for % inhibition (efficacy), D3R when tested as an antagonist: standard antagonist NGB 2904; for functional behavior at D3R: in words
Protocol: as §3

Sequence of D2R (P14416 whole entry): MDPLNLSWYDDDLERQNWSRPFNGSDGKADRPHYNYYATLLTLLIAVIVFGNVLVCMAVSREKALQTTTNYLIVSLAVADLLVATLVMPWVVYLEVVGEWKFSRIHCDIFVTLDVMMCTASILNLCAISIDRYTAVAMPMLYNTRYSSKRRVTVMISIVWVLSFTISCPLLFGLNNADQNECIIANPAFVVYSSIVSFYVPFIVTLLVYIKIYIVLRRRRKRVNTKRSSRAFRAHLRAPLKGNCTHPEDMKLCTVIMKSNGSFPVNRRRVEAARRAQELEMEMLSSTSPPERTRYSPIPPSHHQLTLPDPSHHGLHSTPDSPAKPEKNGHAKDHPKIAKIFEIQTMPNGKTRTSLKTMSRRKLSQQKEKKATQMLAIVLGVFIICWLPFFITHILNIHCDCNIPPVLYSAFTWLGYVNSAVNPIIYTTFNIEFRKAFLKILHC
T1 sequence (P35462 whole entry): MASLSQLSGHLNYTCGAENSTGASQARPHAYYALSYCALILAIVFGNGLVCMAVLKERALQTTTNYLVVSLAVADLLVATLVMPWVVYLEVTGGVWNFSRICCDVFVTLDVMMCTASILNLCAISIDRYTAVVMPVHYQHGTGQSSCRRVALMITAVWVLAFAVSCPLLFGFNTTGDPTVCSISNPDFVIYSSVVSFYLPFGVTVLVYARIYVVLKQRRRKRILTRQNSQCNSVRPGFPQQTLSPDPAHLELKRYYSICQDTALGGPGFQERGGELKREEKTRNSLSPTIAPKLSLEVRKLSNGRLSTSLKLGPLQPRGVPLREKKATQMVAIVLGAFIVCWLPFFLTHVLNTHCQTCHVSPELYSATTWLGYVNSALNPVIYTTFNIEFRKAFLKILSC

Row | SMILES | Ki (D3R [1]) | D2/D3 (D3R [1]) | D4/D3 (D3R [1]) | Ki (D4R) | IC50 (D2R) | % inhib., D2 mitogenesis assay (D2R) | functional behavior at D2R (D2R) | EC50 (D3R [2]) | % stimul., D3 mitogenesis assay (D3R [2]) | IC50 (D3R [2]) | % inhibition (efficacy), D3R when tested as an antagonist (D3R [2]) | functional behavior at D3R (D3R [2])
1 | O=C(NCCCCN1CCN(c2cccc(Cl)c2Cl)CC1)C1COC(c2ccccc2)(c2ccccc2)CO1 (stereo not drawn) [compound 6, N-(4-(4-(2,3-Dichlorophenyl)piperazin-1-yl)butyl)-5,5-diphenyl-1,4-dioxane-2-carboxamide] | 1.58 ± 0.24 nM | 18 | 35 | 54.6 ± 7.3 nM | 8.5 nM | (95.2) % | efficacious D2R and 5-HT2AR antagonists with high and low potency, respectively | 2.72 nM | 25.7% | 6.6 nM | 64.0% | D3R and 5-HT2CR partial agonists with high and low potency, respectively
2 | O=C(NCCCCN1CCN(c2cccc(Cl)c2Cl)CC1)C1COc2ccccc2O1 (stereo not drawn) [compound 9, N-(4-(4-(2,3-Dichlorophenyl)piperazin-1-yl)butyl)-2,3-dihydrobenzo[b][1,4]dioxine-2-carboxamide] | 2.16 ± 0.63 nM | 22 | 35 | 74.7 ± 24.5 nM | 40 nM | (94.4) % | efficacious D2R and 5-HT2AR antagonists with high and low potency, respectively | 5 ± 1.7 nM | 34.0% | 40.4 nM | 64.2% | D3R and 5-HT2CR partial agonists with high and low potency, respectively
3 | O=C(NCCCCN1CCN(c2cccc(Cl)c2Cl)CC1)C1COCC(c2ccccc2)(c2ccccc2)O1 (stereo not drawn) [compound 3, N-(4-(4-(2,3-Dichlorophenyl)piperazin-1-yl)butyl)-6,6-diphenyl-1,4-dioxane-2-carboxamide] | 2.39 ± 0.69 nM | 143 | 566 | 1350 ± 449 nM | 139 nM | (93.5) % | weak D2R antagonist | 9.8 ± 1.6 nM | 36% | 38 nM | 82.7% | partial agonist
